Laboratory results as given in patent US5126258A (priority 1988, dated 1992).
Entries after “also recorded” stand apart in the source; their conditions may differ.

Assays:
[1] = tested on: monoclonal antibody P3 6D4; experiment: Ester hydrolysis by monoclonal antibody P3 6D4, HPLC; type: biochemical, mouse; settings: pH 8.0
Procedure: FIG. 3 illustrates the rate of hydrolysis of a carboxylic ester (Compound 7) determined by HPLC under the conditions described in Table 1 (50 mM phosphate buffer at pH 8.0 and 23 degrees C). ( ) Uncatalyzed (background)rate of hydrolysis. (.quadrature.) Effect of 0.5 micromolar non-specific monoclonal IgG. ( ) 0.1 Micromolar anti-Compound 4 monoclonal antibody from hybridoma P3 6D4. The superimposed curve represents a theoretical exponential decay which fits the data points.
In particular, an exemplary monoclonal receptor was produced by the standard hybridoma technology of Kohler et al., Nature, 256, 495 (1975). Specifically, female 129G1X^+ mice were immunized by intraperitoneal injection with an inoculum of 100 micrograms of conjugate (e.g., Compound 4i bound to KLH) in 300 microliters of a 1:1 mixture of phosphate buffered saline (PBS) pH 7.4 and complete Freund's adjuvant. Two weeks later, the mice were again injected in a like manner with 50 micrograms of the foregoing conjugate in 300 microliters of a 1:1 mixture of PBS (pH 7.4) and 10 mg/ml alum. After an additional eight weeks, the mice were immunized intravenously with 50 micrograms of the conjugate in 200 microliters of PBS (pH 7.4). The spleens were removed from the mice 4 days later, and the spleen cells were fused to myeloma cells.
(§1) The lack of spectroscopic distinction between such esters and their hydrolysis products recommended a chromatographic analysis of the process. Referring to FIG. 3, a mixture of Compound 7 (5 uM) and the monoclonal antibody from hybridoma P3 6D4 (0.1 uM) in phosphate buffer (50 mM, pH 8.0) was analyzed over time by high performance liquid chromatography (HPLC). The accelerated hydrolysis of the ester was apparent from the decrease of its peak and the concurrent increase in two new peaks that correspond with the expected products. Under these conditions, the ester is completely consumed in 60-80 minutes during which time the background rate accounts for about 12 to 16 percent hydrolysis. The chromatographic profile is the same as that produced by treatment with hog liver esterase.
(§2) *Hydrolysis of carboxylic esters by monoclonal antibody (from hybridoma P
(§3) 6D4) and by hog liver esterase (Sigma Chemical Co., St. Louis, MO, EC
(§4) 3.1.1.1) determined by HPLC on an analytical RPC18 column (Vydac 218TP54)
(§5) with isocratic elution [acetonitrile: water plus 0.1 percent
(§6) trifluoroacetic acid; (35:65)] at a flow rate of 1.0 ml/min and the
(§7) detector set at 245 nm. The initial substrate concentration was 5
(§8) micromolar and that the internal standard (acetophenone) was 10 microm
(§9) olar in 50 mM phosphate buffer at pH 8.0. The retention times (minutes)
(§10) were as follows: acetophenone, 5.0; Compound 7, 8.3; Compound 8, 6.7;
(§11) Compound 9, 4.1; Compound 10, 11.1 (40 percent acetonitrile elution);
(§12) Compound 11, 8.2. The antibody concentration was 15 micrograms/ml (0.1
(§13) micromolar) and that of esterase was 5.5 micrograms/ml. The reaction
(§14) mixtures were kept at 25 degrees C. and aliquots were analyzed at
(§15) intervals of 2 to 20 minutes. Three or more determinations were used to
(§16) plot a curve from which the halflife of the reaction is estimated (see

hog liver esterase = type: biochemical; settings: pig, 5 µM, pH 8
Procedure: as §1, §2, §3, §4, §5, §6, §7, §8, §9, §10, §11, §12, §13, §14, §15, §16

[2] = tested on: monoclonal receptor P3 6D4; experiment: Stoichiometric transacylation reaction of monoclonal receptor P3 6D4 with coumarin ester Compound 5 (fluorescence) and its inhibition/inactivation; type: biochemical, mouse
Procedure: A Perkin-Elmer LS-5 fluorescence spectrometer was operated at a fixed wavelength, using 355 nanometers (nm) for excitation and measuring the emission at 455 nm. A stock solution of the coumarin ester 5 was prepared in dioxane and was diluted to the desired concentrations in Tris-HCl (50 mM, pH 7) or sodium phosphate (50 mM, pH 4-9).
Reactions were run at 23 degrees C and were initiated by the addition of an aliquot of antibody solution (1 mg/ml) to substrate solutions to provide a final protein concentration of 100 nM. Final fluorescence values were determined by hydrolysis of the substrate with pig liver esterase. The observed reaction rate was corrected for spontaneous hydrolysis. Reaction kinetics were studied by measuring initial rates under pseudo-first order conditions. Active protein concentration was extrapolated from fluorescence values at the end of the reaction. The kinetic parameters were obtained by fitting the data to a hyperbolic curve and from double reciprocal plots. Inhibition constants were determined from the Lineweaver-Burk plot data with at least five inhibitor concentrations. All the data were studied by a least squares analysis.
Antibody preparations were inactivated without introducing fluorescent products by the addition of the activated ester (Compound 8) in dioxane to a solution of the IgG (5 mg/ml) in Tris-HCl (50 mM, pH 6.5) at a ratio of 5 moles of the ester (Compound 8) per mole IgG.
Protein modification was performed in an analogous manner, by the addition of a dioxane solution of the reagent at a known concentration to the antibody. The solution was incubated for 30 minutes before filtration through Sephadex G-25. The activity remaining was compared to control samples. Aliquots of IgG (5 mg/ml) inactivated with the ester (Compound 8) were diluted with four volumes of phosphate buffer (50 mM, pH 4-9, at intervals of 1 pH unit). Any pH change was recorded, and the sample was stored at 4 degrees C for 24 hours.
Initially, the ester was used at a concentration that was about four-fold greater than that of the protein, and the mixture was incubated at pH 7.2 for 10 minutes. Any change in fluorescence above background was noted.
The termination of the reaction is noted by the return of the rate of fluorescence increase to the background level.

## O=C(Cc1ccc(NC(=O)C(F)(F)F)cc1)Oc1ccccc1 [Compound 10]
[1]
  accelerated hydrolysis by P3 6D4 (substrate acceptance): no effect on the hydrolytic rate; also recorded: not catalyzed
Hog liver esterase
  t1/2 Esterase: 2 min
[2]
  stoichiometric antibody reaction (release of alcohol): Neither is the stoichiometric reaction apparent
